From US20250171438A1 (Agios Pharmaceuticals, Inc., priority 2022, published 2025)

Target: T1, human PAH with the R408W mutation (Homo sapiens, UniProt P00439, R408W)
T1 construct: expressed in transfected cells
T1 sequence (P00439 1-452 R408W): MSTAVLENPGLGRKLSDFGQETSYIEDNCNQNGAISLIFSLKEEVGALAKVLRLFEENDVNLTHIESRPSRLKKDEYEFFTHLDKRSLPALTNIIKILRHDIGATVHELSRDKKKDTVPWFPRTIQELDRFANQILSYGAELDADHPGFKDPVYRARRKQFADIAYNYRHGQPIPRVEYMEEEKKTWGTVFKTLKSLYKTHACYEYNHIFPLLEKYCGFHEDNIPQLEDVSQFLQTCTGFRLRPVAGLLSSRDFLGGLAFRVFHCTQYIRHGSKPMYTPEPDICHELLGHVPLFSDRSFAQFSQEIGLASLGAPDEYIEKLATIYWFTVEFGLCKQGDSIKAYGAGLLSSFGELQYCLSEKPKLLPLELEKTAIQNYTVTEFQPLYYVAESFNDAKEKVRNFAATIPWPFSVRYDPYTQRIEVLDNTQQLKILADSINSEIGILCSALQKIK
Assay: Cell Based Phenylalanine Flux Assay
Conditions: A375 cells expressing human R408W PAH; 24 hrs compound incubation; 13C-Tyrosine by LC-MS; average where tested multiple times; read-out: AC50

Structure (SMILES) | AC50 [nM]
O=C(c1oc(C2(O)CC2)nc1C(F)F)N1CCc2[nH]cnc2[C@@H]1c1nc2c(F)cccc2s1 [Example 1996, (R)-(4-(difluoromethyl)-2-(1-hydroxycyclopropyl)oxazol-5-yl)(4-(4-fluorobenzo[d]thiazol-2-yl)-6,7-dihydro-1H-imidazo[4,5-c]pyridin-5(4H)-yl)methanone] | 1000 to 5000
Cc1nc(C(C)(C)C#N)oc1C(=O)N1CCc2[nH]cnc2[C@@H]1c1nc2c(F)cccc2s1 [Example 1997, (R)-2-(5-(4-(4-fluorobenzo[d]thiazol-2-yl)-4,5,6,7-tetrahydro-1H-imidazo[4,5-c]pyridine-5-carbonyl)-4-methyloxazol-2-yl)-2-methylpropanenitrile] | 1000 to 5000
Cc1nc(C(C)(C)C#N)oc1C(=O)N1CCc2[nH]cnc2[C@H]1c1nc2c(F)cccc2s1 [Example 1998, (S)-2-(5-(4-(4-fluorobenzo[d]thiazol-2-yl)-4,5,6,7-tetrahydro-1H-imidazo[4,5-c]pyridine-5-carbonyl)-4-methyloxazol-2-yl)-2-methylpropanenitrile] | < 500
O=C(c1cn(CC2CC(F)(F)C2)nc1Cl)N1CCc2[nH]cnc2[C@H]1c1nc2c(F)cccc2s1 [Example 2003, (S)-(3-chloro-1-((3,3-difluorocyclobutyl)methyl)-1H-pyrazol-4-yl)(4-(4-fluorobenzo[d]thiazol-2-yl)-6,7-dihydro-1H-imidazo[4,5-c]pyridin-5(4H)-yl)methanone] | < 500
O=C(c1cn(CC2CC(F)(F)C2)nc1Cl)N1CCc2[nH]cnc2[C@@H]1c1nc2c(F)cccc2s1 [Example 2004, (R)-(3-chloro-1-((3,3-difluorocyclobutyl)methyl)-1H-pyrazol-4-yl)(4-(4-fluorobenzo[d]thiazol-2-yl)-6,7-dihydro-1H-imidazo[4,5-c]pyridin-5(4H)-yl)methanone] | 1000 to 5000
CC(C)(c1nc(C(F)F)c(C(=O)N2CCc3[nH]cnc3[C@H]2c2nc3c(F)cccc3s2)o1)S(C)(=O)=O [Example 2005] | < 500
CC(C)(c1nc(C(F)F)c(C(=O)N2CCc3[nH]cnc3[C@@H]2c2nc3c(F)cccc3s2)o1)S(C)(=O)=O [Example 2006, (R)-(4-(difluoromethyl)-2-(2-(methylsulfonyl)propan-2-yl)oxazol-5-yl)(4-(4-fluorobenzo[d]thiazol-2-yl)-6,7-dihydro-1H-imidazo[4,5-c]pyridin-5(4H)-yl)methanone] | 1000 to 5000
CC(F)(F)c1ncoc1C(=O)N1CCc2[nH]cnc2[C@H]1c1nc2c(F)cccc2s1 [Example 2007] | < 500

More lines, now with the values ahead:

AC50 [nM] | Structure (SMILES)
500 to 1000 | O=C(c1cnn(C2CC2)c1C(F)F)N1CCc2[nH]cnc2[C@H]1c1nc2c(F)cccc2s1 [Example 1999, (S)-(1-cyclopropyl-5-(difluoromethyl)-1H-pyrazol-4-yl)(4-(4-fluorobenzo[d]thiazol-2-yl)-6,7-dihydro-1H-imidazo[4,5-c]pyridin-5(4H)-yl)methanone]
1000 to 5000 | O=C(c1cnn(C2CC2)c1C(F)F)N1CCc2[nH]cnc2[C@@H]1c1nc2c(F)cccc2s1 [Example 2000, (R)-(1-cyclopropyl-5-(difluoromethyl)-1H-pyrazol-4-yl)(4-(4-fluorobenzo[d]thiazol-2-yl)-6,7-dihydro-1H-imidazo[4,5-c]pyridin-5(4H)-yl)methanone]
< 500 | CC(C)n1ncc(C(=O)N2CCc3[nH]cnc3[C@H]2c2nc3c(F)cccc3s2)c1C(F)F [Example 2001, (S)-(5-(difluoromethyl)-1-isopropyl-1H-pyrazol-4-yl)(4-(4-fluorobenzo[d]thiazol-2-yl)-6,7-dihydro-1H-imidazo[4,5-c]pyridin-5(4H)-yl)methanone]
1000 to 5000 | CC(C)n1ncc(C(=O)N2CCc3[nH]cnc3[C@@H]2c2nc3c(F)cccc3s2)c1C(F)F [Example 2002, (R)-(5-(difluoromethyl)-1-isopropyl-1H-pyrazol-4-yl)(4-(4-fluorobenzo[d]thiazol-2-yl)-6,7-dihydro-1H-imidazo[4,5-c]pyridin-5(4H)-yl)methanone]
